In the NIST ThermoML archive (doi:10.1016/j.jct.2010.01.003):
Numbers after ± are expanded uncertainties.

Settings: Liquid; for speed of sound: Single path-length method; for mass density: Vibrating tube method

CCCCCCCCCCCCCCCC [hexadecane]
Settings | mass density [kg/m3] | speed of sound [m/s]
290.65 K, 83 kPa | 775 ± 0.7 | 1367.2 ± 5.6
291.15 K, 83 kPa | 774.7 ± 0.7 | 1365.3 ± 5.6
291.65 K, 83 kPa | 774.4 ± 0.7 | 1363.4 ± 5.5
292.15 K, 83 kPa | 774 ± 0.7 | 1361.5 ± 5.5
292.65 K, 83 kPa | 773.6 ± 0.7 | 1359.6 ± 5.5
293.15 K, 83 kPa | 773.3 ± 0.7 | 1357.7 ± 5.5
298.15 K, 83 kPa | 769.8 ± 0.7 | 1338.8 ± 5.4
303.15 K, 83 kPa | 766.4 ± 0.7 | 1320.2 ± 5.4
308.15 K, 83 kPa | 762.9 ± 0.7 | 1301.7 ± 5.3
310 K, 1110 kPa | 761.74 ± 1.6 | –
310 K, 2710 kPa | 762.85 ± 1.6 | –
310 K, 5870 kPa | 765.01 ± 1.6 | –
310 K, 10770 kPa | 768.25 ± 1.6 | –
310 K, 15700 kPa | 771.38 ± 1.7 | –
310 K, 20650 kPa | 774.41 ± 1.7 | –
310 K, 25600 kPa | 777.3 ± 1.7 | –
310 K, 34700 kPa | 782.46 ± 1.7 | –
310 K, 36730 kPa | 783.55 ± 1.7 | –
313.15 K, 83 kPa | 759.4 ± 0.6 | 1283.4 ± 5.2
318.15 K, 83 kPa | 756 ± 0.6 | 1265.3 ± 5.2
323.15 K, 83 kPa | 752.5 ± 0.6 | 1247.4 ± 5.1
328.15 K, 83 kPa | 749.1 ± 0.6 | 1229.8 ± 5
330 K, 1130 kPa | 748.39 ± 1.6 | –
330 K, 2730 kPa | 749.66 ± 1.6 | –
330 K, 5890 kPa | 752.03 ± 1.6 | –
330 K, 10790 kPa | 755.61 ± 1.6 | –
330 K, 15740 kPa | 759.04 ± 1.7 | –
330 K, 20680 kPa | 762.35 ± 1.7 | –
330 K, 25980 kPa | 765.74 ± 1.7 | –
330 K, 36160 kPa | 771.9 ± 1.7 | –
330 K, 38240 kPa | 773.11 ± 1.7 | –
330 K, 45960 kPa | 777.44 ± 1.7 | –
333.15 K, 83 kPa | 745.6 ± 0.6 | 1212.3 ± 5
338.15 K, 83 kPa | 742.2 ± 0.6 | 1194.9 ± 4.9
343.15 K, 83 kPa | 738.7 ± 0.6 | 1177.9 ± 4.8
350 K, 1020 kPa | 734.55 ± 1.6 | –
350 K, 2630 kPa | 735.94 ± 1.6 | –
350 K, 5790 kPa | 738.58 ± 1.6 | –
350 K, 10710 kPa | 742.54 ± 1.6 | –
350 K, 15650 kPa | 746.27 ± 1.7 | –
350 K, 20600 kPa | 749.88 ± 1.7 | –
350 K, 25560 kPa | 753.33 ± 1.7 | –
350 K, 36140 kPa | 760.24 ± 1.7 | –
350 K, 40130 kPa | 762.7 ± 1.7 | –
370 K, 1030 kPa | 720.83 ± 1.6 | –
370 K, 2620 kPa | 722.35 ± 1.6 | –
370 K, 5780 kPa | 725.3 ± 1.6 | –
370 K, 10710 kPa | 729.65 ± 1.6 | –
370 K, 15660 kPa | 733.76 ± 1.7 | –
370 K, 20610 kPa | 737.69 ± 1.7 | –
370 K, 25580 kPa | 741.44 ± 1.7 | –
370 K, 34010 kPa | 747.41 ± 1.7 | –
370 K, 41340 kPa | 752.26 ± 1.7 | –
390 K, 1040 kPa | 706.5 ± 1.6 | –
390 K, 2630 kPa | 708.23 ± 1.6 | –
390 K, 5790 kPa | 711.5 ± 1.6 | –
390 K, 10690 kPa | 716.31 ± 1.6 | –
390 K, 15650 kPa | 720.83 ± 1.7 | –
390 K, 20600 kPa | 725.12 ± 1.7 | –
390 K, 25550 kPa | 729.18 ± 1.7 | –
390 K, 35160 kPa | 736.52 ± 1.7 | –
390 K, 39900 kPa | 739.91 ± 1.7 | –
390 K, 44320 kPa | 742.94 ± 1.7 | –
390 K, 46900 kPa | 744.61 ± 1.7 | –
410 K, 1080 kPa | 692.52 ± 1.6 | –
410 K, 2680 kPa | 694.47 ± 1.6 | –
410 K, 5830 kPa | 698.12 ± 1.6 | –
410 K, 10750 kPa | 703.47 ± 1.7 | –
410 K, 15700 kPa | 708.47 ± 1.7 | –
410 K, 20630 kPa | 713.12 ± 1.7 | –
410 K, 25570 kPa | 717.52 ± 1.7 | –
410 K, 30420 kPa | 721.61 ± 1.7 | –
410 K, 37220 kPa | 726.98 ± 1.7 | –
410 K, 44820 kPa | 732.63 ± 1.7 | –
410 K, 50700 kPa | 736.75 ± 1.8 | –
430 K, 970 kPa | 677.73 ± 1.6 | –
430 K, 2590 kPa | 679.9 ± 1.6 | –
430 K, 5770 kPa | 684.04 ± 1.6 | –
430 K, 10650 kPa | 689.93 ± 1.7 | –
430 K, 15590 kPa | 695.44 ± 1.7 | –
430 K, 20560 kPa | 700.57 ± 1.7 | –
430 K, 25530 kPa | 705.37 ± 1.7 | –
430 K, 30420 kPa | 709.84 ± 1.7 | –
430 K, 39590 kPa | 717.56 ± 1.7 | –
430 K, 44320 kPa | 721.28 ± 1.8 | –
430 K, 48490 kPa | 724.39 ± 1.8 | –
450 K, 960 kPa | 662.64 ± 1.6 | –
450 K, 2560 kPa | 665.22 ± 1.6 | –
450 K, 5750 kPa | 669.98 ± 1.6 | –
450 K, 10620 kPa | 676.53 ± 1.7 | –
450 K, 15590 kPa | 682.65 ± 1.7 | –
450 K, 20560 kPa | 688.27 ± 1.7 | –
450 K, 25530 kPa | 693.48 ± 1.7 | –
450 K, 30800 kPa | 698.66 ± 1.7 | –
450 K, 39150 kPa | 706.2 ± 1.7 | –
450 K, 43400 kPa | 709.8 ± 1.8 | –
450 K, 45310 kPa | 711.32 ± 1.8 | –
470 K, 1070 kPa | 648.42 ± 1.6 | –
470 K, 2660 kPa | 651.24 ± 1.6 | –
470 K, 5770 kPa | 656.4 ± 1.6 | –
470 K, 10730 kPa | 663.85 ± 1.7 | –
470 K, 15690 kPa | 670.57 ± 1.7 | –
470 K, 20640 kPa | 676.69 ± 1.7 | –
470 K, 25530 kPa | 682.28 ± 1.7 | –
470 K, 30470 kPa | 687.53 ± 1.7 | –
470 K, 38870 kPa | 695.7 ± 1.8 | –
470 K, 42790 kPa | 699.27 ± 1.8 | –
470 K, 47790 kPa | 703.6 ± 1.8 | –
